Assay results: patent publication US8466132B2, “Substituted tetracycline compounds” (Paratek Pharmaceuticals, Inc., priority 2004, dated 2013)

Assays:
Assay type in all cases: cell-based
Parameters in all cases: key: Compounds which showed superior inhibition of S. aureus, S. pseumoniae and E. coli are indicated by “***,”; compounds which showed very good or good inhibition of S. aureus, S. pseumoniae and E. coli are indicated by “**” or “*” respectively; compounds which showed very good or good inhibition of S. aureus, S. pseumoniae and E. coli are indicated by “**” or “*” respectively
Settings in all cases: broth microdilution in CAMHB, 35° C., approximately 18 hour
E. coli MG 1655 = assay: In vitro minimum inhibitory concentration (MIC) assay, E. coli
Procedure: (§1) The following assay is used to determine the efficacy of the tetracycline compounds against common bacteria. 2 mg of each compound is dissolved in 100 μl of DMSO. The solution is then added to cation-adjusted Mueller Hinton broth (CAMHB), which results in a final compound concentration of 200 μg per ml. The tetracycline compound solutions are diluted to 50 μL volumes, with a test compound concentration of 0.098 μg/ml. Optical density (OD) determinations are made from fresh log-phase broth cultures of the test strains. Dilutions are made to achieve a final cell density of 1×10^6 CFU/ml. At OD=1, cell densities for different genera should be approximately:
(§2) 50 μl of the cell suspensions are added to each well of microtiter plates. The final cell density should be approximately 5×10^5 CFU/ml. These plates are incubated at 35° C. in an ambient air incubator for approximately 18 hour. The plates are read with a microplate reader and are visually inspected when necessary. The MIC is defined as the lowest concentration of the tetracycline compound that inhibits growth.
(§3) Table 3 gives the MIC (μg/mL) of selected substituted tetracycline compounds against S. aureus, S. pseuimoniae, and E. coli.

S. pneumoniae 157E = assay: In vitro minimum inhibitory concentration (MIC) assay, S. pneumoniae
Procedure: as §1, §2, §3

S. aureus RN450 = assay: In vitro minimum inhibitory concentration (MIC) assay, S. aureus
Procedure: as §1, §2, §3

CN(C)c1cc(-c2ncccn2)c(O)c2c1C[C@H]1C[C@H]3[C@H](N(C)C)C(O)=C(C(N)=O)C(=O)[C@@]3(O)C(O)=C1C2=O
Median MIC for E. coli MG 1655 (E. coli MG 1655): *
Median MIC for S. pneumoniae 157E (S. pneumoniae 157E): **
Median MIC for S. aureus RN450 (S. aureus RN450): ***

CN(C)c1cc(C#CC(=O)O)c(O)c2c1C[C@H]1C[C@H]3[C@@H](N(C)C)C(O)=C(C(N)=O)C(=O)[C@@]3(O)C(O)=C1C2=O
Median MIC for E. coli MG 1655 (E. coli MG 1655): *
Median MIC for S. pneumoniae 157E (S. pneumoniae 157E): *
Median MIC for S. aureus RN450 (S. aureus RN450): *

COC(=O)C#Cc1cc(N(C)C)c2c(c1O)C(=O)C1=C(O)[C@]3(O)C(=O)C(C(N)=O)=C(O)[C@H](N(C)C)[C@@H]3C[C@@H]1C2
Median MIC for E. coli MG 1655 (E. coli MG 1655): *
Median MIC for S. pneumoniae 157E (S. pneumoniae 157E): ***
Median MIC for S. aureus RN450 (S. aureus RN450): ***

CN(C)c1cc(-c2ncco2)c(O)c2c1C[C@H]1C[C@H]3[C@H](N(C)C)C(O)=C(C(N)=O)C(=O)[C@@]3(O)C(O)=C1C2=O
Median MIC for E. coli MG 1655 (E. coli MG 1655): *
Median MIC for S. pneumoniae 157E (S. pneumoniae 157E): **
Median MIC for S. aureus RN450 (S. aureus RN450): **

CN(C)c1cc(-c2cn[nH]c2)c(O)c2c1C[C@H]1C[C@H]3[C@H](N(C)C)C(O)=C(C(N)=O)C(=O)[C@@]3(O)C(O)=C1C2=O
Median MIC for E. coli MG 1655 (E. coli MG 1655): *
Median MIC for S. pneumoniae 157E (S. pneumoniae 157E): *
Median MIC for S. aureus RN450 (S. aureus RN450): *

CN(C)c1cc(C(=O)N2CCCCC2)c(O)c2c1C[C@H]1C[C@H]3[C@H](N(C)C)C(O)=C(C(N)=O)C(=O)[C@@]3(O)C(O)=C1C2=O
Median MIC for E. coli MG 1655 (E. coli MG 1655): *
Median MIC for S. pneumoniae 157E (S. pneumoniae 157E): *
Median MIC for S. aureus RN450 (S. aureus RN450): *

COCC#Cc1cc(N(C)C)c2c(c1O)C(=O)C1=C(O)[C@]3(O)C(=O)C(C(N)=O)=C(O)[C@@H](N(C)C)[C@@H]3C[C@@H]1C2
Median MIC for E. coli MG 1655 (E. coli MG 1655): *
Median MIC for S. pneumoniae 157E (S. pneumoniae 157E): ***
Median MIC for S. aureus RN450 (S. aureus RN450): ***

CNC(=O)c1cc(N(C)C)c2c(c1O)C(=O)C1=C(O)[C@]3(O)C(=O)C(C(N)=O)=C(O)[C@@H](N(C)C)[C@@H]3C[C@@H]1C2
Median MIC for E. coli MG 1655 (E. coli MG 1655): *
Median MIC for S. pneumoniae 157E (S. pneumoniae 157E): *
Median MIC for S. aureus RN450 (S. aureus RN450): *

CN(C)c1cc(-c2cccnc2)c(O)c2c1C[C@H]1C[C@H]3[C@H](N(C)C)C(O)=C(C(N)=O)C(=O)[C@@]3(O)C(O)=C1C2=O
Median MIC for E. coli MG 1655 (E. coli MG 1655): *
Median MIC for S. pneumoniae 157E (S. pneumoniae 157E): **
Median MIC for S. aureus RN450 (S. aureus RN450): **

CN(C)c1cc(-c2ccccn2)c(O)c2c1C[C@H]1C[C@H]3[C@H](N(C)C)C(O)=C(C(N)=O)C(=O)[C@@]3(O)C(O)=C1C2=O
Median MIC for E. coli MG 1655 (E. coli MG 1655): *
Median MIC for S. pneumoniae 157E (S. pneumoniae 157E): ***
Median MIC for S. aureus RN450 (S. aureus RN450): ***

CN(C)c1cc(-c2nccs2)c(O)c2c1C[C@H]1C[C@H]3[C@H](N(C)C)C(O)=C(C(N)=O)C(=O)[C@@]3(O)C(O)=C1C2=O
Median MIC for E. coli MG 1655 (E. coli MG 1655): *
Median MIC for S. pneumoniae 157E (S. pneumoniae 157E): **
Median MIC for S. aureus RN450 (S. aureus RN450): ***

CN(C)c1cc(-c2ccncc2)c(O)c2c1C[C@H]1C[C@H]3[C@H](N(C)C)C(O)=C(C(N)=O)C(=O)[C@@]3(O)C(O)=C1C2=O
Median MIC for E. coli MG 1655 (E. coli MG 1655): *
Median MIC for S. pneumoniae 157E (S. pneumoniae 157E): ***
Median MIC for S. aureus RN450 (S. aureus RN450): ***

CN(C)c1cc(C#N)c(O)c2c1C[C@H]1C[C@H]3[C@H](N(C)C)C(O)=C(C(N)=O)C(=O)[C@@]3(O)C(O)=C1C2=O
Median MIC for E. coli MG 1655 (E. coli MG 1655): **
Median MIC for S. pneumoniae 157E (S. pneumoniae 157E): ***
Median MIC for S. aureus RN450 (S. aureus RN450): ***

CN(C)c1cc(-c2cncnc2)c(O)c2c1C[C@H]1C[C@H]3[C@H](N(C)C)C(O)=C(C(N)=O)C(=O)[C@@]3(O)C(O)=C1C2=O
Median MIC for E. coli MG 1655 (E. coli MG 1655): *
Median MIC for S. pneumoniae 157E (S. pneumoniae 157E): ***
Median MIC for S. aureus RN450 (S. aureus RN450): ***

CN(C)c1cccc(-c2cc(N(C)C)c3c(c2O)C(=O)C2=C(O)[C@]4(O)C(=O)C(C(N)=O)=C(O)[C@H](N(C)C)[C@@H]4C[C@@H]2C3)c1
Median MIC for E. coli MG 1655 (E. coli MG 1655): *
Median MIC for S. pneumoniae 157E (S. pneumoniae 157E): ***
Median MIC for S. aureus RN450 (S. aureus RN450): ***

CN(C)c1cc(-c2ccsc2)c(O)c2c1C[C@H]1C[C@H]3[C@H](N(C)C)C(O)=C(C(N)=O)C(=O)[C@@]3(O)C(O)=C1C2=O
Median MIC for E. coli MG 1655 (E. coli MG 1655): *
Median MIC for S. pneumoniae 157E (S. pneumoniae 157E): ***
Median MIC for S. aureus RN450 (S. aureus RN450): ***

CN(C)c1cc(C#N)c(O)c2c1C[C@H]1C[C@H]3[C@@H](N(C)C)C(O)=C(C(N)=O)C(=O)C3(O)C(O)=C1C2=O (stereo partly drawn)
Median MIC for E. coli MG 1655 (E. coli MG 1655): *
Median MIC for S. pneumoniae 157E (S. pneumoniae 157E): ***
Median MIC for S. aureus RN450 (S. aureus RN450): ***

CN(C)c1cc(-c2cnoc2)c(O)c2c1C[C@H]1C[C@H]3[C@H](N(C)C)C(O)=C(C(N)=O)C(=O)[C@@]3(O)C(O)=C1C2=O
Median MIC for E. coli MG 1655 (E. coli MG 1655): *
Median MIC for S. pneumoniae 157E (S. pneumoniae 157E): ***
Median MIC for S. aureus RN450 (S. aureus RN450): ***

CN(C)c1cc(C(N)=O)c(O)c2c1C[C@H]1C[C@H]3[C@H](N(C)C)C(O)=C(C(N)=O)C(=O)[C@@]3(O)C(O)=C1C2=O
Median MIC for E. coli MG 1655 (E. coli MG 1655): *
Median MIC for S. pneumoniae 157E (S. pneumoniae 157E): *
Median MIC for S. aureus RN450 (S. aureus RN450): *

CN(C)c1cc(-c2ccc(C#N)nc2)c(O)c2c1C[C@H]1C[C@H]3[C@H](N(C)C)C(O)=C(C(N)=O)C(=O)[C@@]3(O)C(O)=C1C2=O
Median MIC for E. coli MG 1655 (E. coli MG 1655): *
Median MIC for S. pneumoniae 157E (S. pneumoniae 157E): ***
Median MIC for S. aureus RN450 (S. aureus RN450): ***

CC(=O)c1cc(N(C)C)c2c(c1O)C(=O)C1=C(O)[C@]3(O)C(=O)C(C(N)=O)=C(O)[C@H](N(C)C)[C@@H]3C[C@@H]1C2
Median MIC for E. coli MG 1655 (E. coli MG 1655): *
Median MIC for S. pneumoniae 157E (S. pneumoniae 157E): *
Median MIC for S. aureus RN450 (S. aureus RN450): *

CC(=O)Nc1ccc(-c2cc(N(C)C)c3c(c2O)C(=O)C2=C(O)[C@]4(O)C(=O)C(C(N)=O)=C(O)[C@@H](N(C)C)[C@@H]4C[C@@H]2C3)cn1
Median MIC for E. coli MG 1655 (E. coli MG 1655): *
Median MIC for S. pneumoniae 157E (S. pneumoniae 157E): ***
Median MIC for S. aureus RN450 (S. aureus RN450): ***

CN(C)c1cc(C(=O)NCC(C)(C)C)c(O)c2c1C[C@H]1C[C@H]3[C@H](N(C)C)C(O)=C(C(N)=O)C(=O)[C@@]3(O)C(O)=C1C2=O
Median MIC for E. coli MG 1655 (E. coli MG 1655): *
Median MIC for S. pneumoniae 157E (S. pneumoniae 157E): **
Median MIC for S. aureus RN450 (S. aureus RN450): ***

CN(C)c1cc(-c2cnccn2)c(O)c2c1C[C@H]1C[C@H]3[C@H](N(C)C)C(O)=C(C(N)=O)C(=O)[C@@]3(O)C(O)=C1C2=O
Median MIC for E. coli MG 1655 (E. coli MG 1655): *
Median MIC for S. pneumoniae 157E (S. pneumoniae 157E): ***
Median MIC for S. aureus RN450 (S. aureus RN450): ***

CN(C)c1cc(-c2cc[nH]n2)c(O)c2c1C[C@H]1C[C@H]3[C@H](N(C)C)C(O)=C(C(N)=O)C(=O)[C@@]3(O)C(O)=C1C2=O
Median MIC for E. coli MG 1655 (E. coli MG 1655): *
Median MIC for S. pneumoniae 157E (S. pneumoniae 157E): **
Median MIC for S. aureus RN450 (S. aureus RN450): ***

CN(C)c1cc(C(=O)NO)c(O)c2c1C[C@H]1C[C@H]3[C@H](N(C)C)C(O)=C(C(N)=O)C(=O)[C@@]3(O)C(O)=C1C2=O
Median MIC for E. coli MG 1655 (E. coli MG 1655): *
Median MIC for S. pneumoniae 157E (S. pneumoniae 157E): *
Median MIC for S. aureus RN450 (S. aureus RN450): *

CONC(=O)c1cc(N(C)C)c2c(c1O)C(=O)C1=C(O)[C@]3(O)C(=O)C(C(N)=O)=C(O)[C@@H](N(C)C)[C@@H]3C[C@@H]1C2
Median MIC for E. coli MG 1655 (E. coli MG 1655): *
Median MIC for S. pneumoniae 157E (S. pneumoniae 157E): *
Median MIC for S. aureus RN450 (S. aureus RN450): *

CN(C)c1ccc(-c2cc(N(C)C)c3c(c2O)C(=O)C2=C(O)[C@]4(O)C(=O)C(C(N)=O)=C(O)[C@@H](N(C)C)[C@@H]4C[C@@H]2C3)cc1
Median MIC for E. coli MG 1655 (E. coli MG 1655): *
Median MIC for S. pneumoniae 157E (S. pneumoniae 157E): ***
Median MIC for S. aureus RN450 (S. aureus RN450): ***

CN(C)c1cc(-c2cccc(C(N)=O)c2)c(O)c2c1C[C@H]1C[C@H]3[C@H](N(C)C)C(O)=C(C(N)=O)C(=O)[C@@]3(O)C(O)=C1C2=O
Median MIC for E. coli MG 1655 (E. coli MG 1655): *
Median MIC for S. pneumoniae 157E (S. pneumoniae 157E): **
Median MIC for S. aureus RN450 (S. aureus RN450): ***

CN(C)c1cc(-c2cccc(C(=O)O)c2)c(O)c2c1C[C@H]1C[C@H]3[C@H](N(C)C)C(O)=C(C(N)=O)C(=O)[C@@]3(O)C(O)=C1C2=O
Median MIC for E. coli MG 1655 (E. coli MG 1655): *
Median MIC for S. pneumoniae 157E (S. pneumoniae 157E): *
Median MIC for S. aureus RN450 (S. aureus RN450): *

CCCN(CC)C(=O)c1cc(N(C)C)c2c(c1O)C(=O)C1=C(O)[C@]3(O)C(=O)C(C(N)=O)=C(O)[C@@H](N(C)C)[C@@H]3C[C@@H]1C2
Median MIC for E. coli MG 1655 (E. coli MG 1655): *
Median MIC for S. pneumoniae 157E (S. pneumoniae 157E): *
Median MIC for S. aureus RN450 (S. aureus RN450): *

CCCCNC(=O)c1cc(N(C)C)c2c(c1O)C(=O)C1=C(O)[C@]3(O)C(=O)C(C(N)=O)=C(O)[C@@H](N(C)C)[C@@H]3C[C@@H]1C2
Median MIC for E. coli MG 1655 (E. coli MG 1655): *
Median MIC for S. pneumoniae 157E (S. pneumoniae 157E): *
Median MIC for S. aureus RN450 (S. aureus RN450): *
